Results published in patent US20240409585A1, “MACROCYCLIC IMMUNOMODULATORS” (priority 2021, published 2024).
Bridge positions count the residues as written; N and C are the ends. Square brackets hold non-standard residues; d marks the D form. Peptide text beside a SMILES is read from it. * marks the point of attachment. Phe(4-COOH) = N[C@@H](Cc1ccc(C(=O)O)cc1)C(=O)O; Bip = N[C@@H](Cc1ccc(-c2ccccc2)cc1)C(=O)O; Phe(3-Me) = Cc1cccc(C[C@H](N)C(=O)O)c1; 3Pal = N[C@@H](Cc1cccnc1)C(=O)O; 4Pal = N[C@@H](Cc1ccncc1)C(=O)O; Carboxymethyl = O=C(O)C*; NMeA = CN[C@@H](C)C(=O)O; Dap = NC[C@H](N)C(=O)O

Biological target: T1, PE-labeled human PD-L1-Ig binding to Jurkat cell line over-expressing human PD-1 (Jurkat-PD-1) (Homo sapiens, UniProt Q15116)
T1 construct: expressed in transfected cells; host or cells: Jurkat
T1 sequence (Q15116 25-288): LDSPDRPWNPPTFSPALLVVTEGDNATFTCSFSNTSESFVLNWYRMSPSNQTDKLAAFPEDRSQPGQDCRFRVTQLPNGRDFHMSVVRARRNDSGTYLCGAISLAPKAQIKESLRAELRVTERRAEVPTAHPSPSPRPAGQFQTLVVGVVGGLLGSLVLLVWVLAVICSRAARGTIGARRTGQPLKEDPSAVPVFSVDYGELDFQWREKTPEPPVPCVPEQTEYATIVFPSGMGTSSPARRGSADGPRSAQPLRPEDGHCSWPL
Test: Jurkat-PD-1 Cell Binding High-Content Screening Assay (CBA): Method 1
Details: Jurkat HPDL1 PD1 IC50 (uM) (Method 1), Jurkat-hPD-1 cells, PE-labeled PD-L1-Ig 20 nM final

| SMILES | IC50 |
| --- | --- |
| C=C1N[C@@H](Cc2ccccc2)C(=O)N(C)[C@@H](C)C(=O)N[C@H](CC(C)C)C(=O)N[C@@H](CC(N)=O)C(=O)N[C@@H](CC(C)C)C(=O)N[C@@H](Cc2ccccc2)C(=O)N[C@@H](CO)C(=O)N[C@H](C(=O)N[C@@H](C)C(N)=O)CSCC(=O)N[C@@H](Cc2ccc(OCC(=O)O)cc2)C(=O)N[C@@H](Cc2ccc(C(=O)O)cc2)C(=O)N[C@@H](CC(=O)O)C(=O)N[C@@H](Cc2cccc(C)c2)C(=O)N[C@@H](CC(C)C)C(=O)N[C@H]1Cc1ccc(-c2ccccc2)cc1 [Compound 1585] | 0.73 µM |
| Cc1cccc(C[C@@H]2NC(=O)[C@H](CC(=O)O)NC(=O)[C@H](Cc3ccc(OCC(=O)O)cc3)NC(=O)[C@H](CN)NC(=O)CSC[C@@H](C(=O)N[C@@H](C)C(N)=O)NC(=O)[C@H](CO)NC(=O)[C@H](Cc3ccccc3)NC(=O)[C@H](CC(C)C)NC(=O)[C@H](CC(N)=O)NC(=O)[C@@H](CC(C)C)NC(=O)[C@H](C)N(C)C(=O)[C@H](Cc3ccccc3)NC(=O)[C@H](Cc3ccc(-c4ccccc4)cc3)NC(=O)[C@H](CC(C)C)NC2=O)c1 [Compound 1586] ({CH2CO}-[Dap]Y(Carboxymethyl)D[Phe(3-Me)]L[Bip]F[NMeA][dL]NLFSCA-NH2; thioether N-14) | 0.54 µM |
| Cc1cccc(C[C@@H]2NC(=O)[C@H](CC(=O)O)NC(=O)[C@H](Cc3ccc(OCC(=O)O)cc3)NC(=O)[C@H](Cc3ccncc3)NC(=O)CSC[C@@H](C(=O)N[C@@H](C)C(N)=O)NC(=O)[C@H](CO)NC(=O)[C@H](Cc3ccccc3)NC(=O)[C@H](CC(C)C)NC(=O)[C@H](CC(N)=O)NC(=O)[C@@H](CC(C)C)NC(=O)[C@H](C)N(C)C(=O)[C@H](Cc3ccccc3)NC(=O)[C@H](Cc3ccc(-c4ccccc4)cc3)NC(=O)[C@H](CC(C)C)NC2=O)c1 [Compound 1588] ({CH2CO}-[4Pal]Y(Carboxymethyl)D[Phe(3-Me)]L[Bip]F[NMeA][dL]NLFSCA-NH2; thioether N-14) | 0.32 µM |
| Cc1cccc(C[C@@H]2NC(=O)[C@H](CC(=O)O)NC(=O)[C@H](Cc3ccccc3)NC(=O)[C@H](CN)NC(=O)CSC[C@@H](C(=O)N[C@@H](C)C(N)=O)NC(=O)[C@H](CO)NC(=O)[C@H](Cc3ccccc3)NC(=O)[C@H](CC(C)C)NC(=O)[C@H](CC(N)=O)NC(=O)[C@@H](CC(C)C)NC(=O)[C@H](C)N(C)C(=O)[C@H](Cc3ccccc3)NC(=O)[C@H](Cc3ccc(-c4ccccc4)cc3)NC(=O)[C@H](CC(C)C)NC2=O)c1 [Compound 1594] ({CH2CO}-[Dap]FD[Phe(3-Me)]L[Bip]F[NMeA][dL]NLFSCA-NH2; thioether N-14) | 0.01 µM |

Same assay, conditions: Jurkat-hPD-1 cells, PE-labeled PD-L1-Ig 20 nM final; read-out: Jurkat HPDL1 PD1 IC50 (uM) (Method 1)

| IC50 | SMILES |
| --- | --- |
| 0.02 µM | Cc1cccc(C[C@@H]2NC(=O)[C@H](CC(=O)O)NC(=O)[C@H](Cc3ccc(C(=O)O)cc3)NC(=O)[C@H](Cc3ccc(OCC(=O)O)cc3)NC(=O)CSC[C@@H](C(=O)N[C@@H](C)C(N)=O)NC(=O)[C@H](CO)NC(=O)[C@H](C(C)C)NC(=O)[C@H](CC(C)C)NC(=O)[C@H](CC(N)=O)NC(=O)[C@@H](C)NC(=O)[C@H](C)N(C)C(=O)[C@H](C(C)C)NC(=O)[C@H](Cc3ccc(-c4ccccc4)cc3)NC(=O)[C@H](CC(C)C)NC2=O)c1 [Compound 1579] ({CH2CO}-Y(Carboxymethyl)[Phe(4-COOH)]D[Phe(3-Me)]L[Bip]V[NMeA][dA]NLVSCA-NH2; thioether N-14) |
| 0.01 µM | Cc1cccc(C[C@@H]2NC(=O)[C@H](CC(=O)O)NC(=O)[C@H](Cc3ccc(OCC(=O)O)cc3)NC(=O)[C@H](Cc3ccc(OCC(=O)O)cc3)NC(=O)CSC[C@@H](C(=O)N[C@@H](C)C(N)=O)NC(=O)[C@H](CO)NC(=O)[C@H](C(C)C)NC(=O)[C@H](CC(C)C)NC(=O)[C@H](CC(N)=O)NC(=O)[C@@H](C)NC(=O)[C@H](C)N(C)C(=O)[C@H](C(C)C)NC(=O)[C@H](Cc3ccc(-c4ccccc4)cc3)NC(=O)[C@H](CC(C)C)NC2=O)c1 [Compound 1580] ({CH2CO}-Y(Carboxymethyl)Y(Carboxymethyl)D[Phe(3-Me)]L[Bip]V[NMeA][dA]NLVSCA-NH2; thioether N-14) |
| 0.02 µM | Cc1cccc(C[C@@H]2NC(=O)[C@H](CC(=O)O)NC(=O)[C@H](Cc3ccc(OCC(=O)O)cc3)NC(=O)[C@H](CN)NC(=O)CSC[C@@H](C(=O)N[C@@H](C)C(N)=O)NC(=O)[C@H](CO)NC(=O)[C@H](C(C)C)NC(=O)[C@H](CC(C)C)NC(=O)[C@H](CC(N)=O)NC(=O)[C@@H](C)NC(=O)[C@H](C)N(C)C(=O)[C@H](C(C)C)NC(=O)[C@H](Cc3ccc(-c4ccccc4)cc3)NC(=O)[C@H](CC(C)C)NC2=O)c1 [Compound 1582] ({CH2CO}-[Dap]Y(Carboxymethyl)D[Phe(3-Me)]L[Bip]V[NMeA][dA]NLVSCA-NH2; thioether N-14) |
| 0.01 µM | Cc1cccc(C[C@@H]2NC(=O)[C@H](CC(=O)O)NC(=O)[C@H](Cc3ccncc3)NC(=O)[C@H](Cc3ccc(OCC(=O)O)cc3)NC(=O)CSC[C@@H](C(=O)N[C@@H](C)C(N)=O)NC(=O)[C@H](CO)NC(=O)[C@H](C(C)C)NC(=O)[C@H](CC(C)C)NC(=O)[C@H](CC(N)=O)NC(=O)[C@@H](C)NC(=O)[C@H](C)N(C)C(=O)[C@H](C(C)C)NC(=O)[C@H](Cc3ccc(-c4ccccc4)cc3)NC(=O)[C@H](CC(C)C)NC2=O)c1 [Compound 1583] ({CH2CO}-Y(Carboxymethyl)[4Pal]D[Phe(3-Me)]L[Bip]V[NMeA][dA]NLVSCA-NH2; thioether N-14) |
| 0.02 µM | Cc1cccc(C[C@@H]2NC(=O)[C@H](CC(=O)O)NC(=O)[C@H](Cc3cccnc3)NC(=O)[C@H](CN)NC(=O)CSC[C@@H](C(=O)N[C@@H](C)C(N)=O)NC(=O)[C@H](CO)NC(=O)[C@H](C(C)C)NC(=O)[C@H](CC(C)C)NC(=O)[C@H](CC(N)=O)NC(=O)[C@@H](C)NC(=O)[C@H](C)N(C)C(=O)[C@H](C(C)C)NC(=O)[C@H](Cc3ccc(-c4ccccc4)cc3)NC(=O)[C@H](CC(C)C)NC2=O)c1 [Compound 1584] ({CH2CO}-[Dap][3Pal]D[Phe(3-Me)]L[Bip]V[NMeA][dA]NLVSCA-NH2; thioether N-14) |
| 0.7 µM | Cc1cccc(C[C@@H]2NC(=O)[C@H](CC(=O)O)NC(=O)[C@H](Cc3ccc(OCC(=O)O)cc3)NC(=O)[C@H](Cc3ccc(OCC(=O)O)cc3)NC(=O)CSC[C@@H](C(=O)N[C@@H](C)C(N)=O)NC(=O)[C@H](CO)NC(=O)[C@H](Cc3ccccc3)NC(=O)[C@H](CC(C)C)NC(=O)[C@H](CC(N)=O)NC(=O)[C@@H](CC(C)C)NC(=O)[C@H](C)N(C)C(=O)[C@H](Cc3ccccc3)NC(=O)[C@H](Cc3ccc(-c4ccccc4)cc3)NC(=O)[C@H](CC(C)C)NC2=O)c1 [Compound 1587] ({CH2CO}-Y(Carboxymethyl)Y(Carboxymethyl)D[Phe(3-Me)]L[Bip]F[NMeA][dL]NLFSCA-NH2; thioether N-14) |
| 0.03 µM | Cc1cccc(C[C@@H]2NC(=O)[C@H](CC(=O)O)NC(=O)[C@H](Cc3ccncc3)NC(=O)[C@H](Cc3ccc(OCC(=O)O)cc3)NC(=O)CSC[C@@H](C(=O)N[C@@H](C)C(N)=O)NC(=O)[C@H](CO)NC(=O)[C@H](C(C)C)NC(=O)[C@H](CC(C)C)NC(=O)[C@H](CC(N)=O)NC(=O)[C@@H](CC(C)C)NC(=O)[C@H](C)N(C)C(=O)[C@H](C(C)C)NC(=O)[C@H](Cc3ccc(-c4ccccc4)cc3)NC(=O)[C@H](CC(C)C)NC2=O)c1 [Compound 1589] ({CH2CO}-Y(Carboxymethyl)[4Pal]D[Phe(3-Me)]L[Bip]V[NMeA][dL]NLVSCA-NH2; thioether N-14) |
| 0.03 µM | CC(C)C[C@@H]1NC(=O)[C@H](Cc2c[nH]c3ccccc23)NC(=O)[C@H](CC(=O)O)NC(=O)[C@H](Cc2ccncc2)NC(=O)[C@H](Cc2ccc(OCC(=O)O)cc2)NC(=O)CSC[C@@H](C(=O)N[C@@H](C)C(N)=O)NC(=O)[C@H](CO)NC(=O)[C@H](C(C)C)NC(=O)[C@H](CC(C)C)NC(=O)[C@H](CC(N)=O)NC(=O)[C@@H](CC(C)C)NC(=O)[C@H](C)N(C)C(=O)[C@H](C(C)C)NC(=O)[C@H](Cc2ccc(-c3ccccc3)cc2)NC1=O [Compound 1591] ({CH2CO}-Y(Carboxymethyl)[4Pal]DWL[Bip]V[NMeA][dL]NLVSCA-NH2; thioether N-14) |
| 0.01 µM | CC(C)C[C@@H]1NC(=O)[C@H](Cc2c[nH]c3ccccc23)NC(=O)[C@H](CC(=O)O)NC(=O)[C@H](Cc2ccc(OCC(=O)O)cc2)NC(=O)[C@H](Cc2ccncc2)NC(=O)CSC[C@@H](C(=O)N[C@@H](C)C(N)=O)NC(=O)[C@H](CO)NC(=O)[C@H](C(C)C)NC(=O)[C@H](CC(C)C)NC(=O)[C@H](CC(N)=O)NC(=O)[C@@H](CC(C)C)NC(=O)[C@H](C)N(C)C(=O)[C@H](C(C)C)NC(=O)[C@H](Cc2ccc(-c3ccccc3)cc2)NC1=O [Compound 1592] ({CH2CO}-[4Pal]Y(Carboxymethyl)DWL[Bip]V[NMeA][dL]NLVSCA-NH2; thioether N-14) |
| 0.01 µM | Cc1cccc(C[C@@H]2NC(=O)[C@H](CC(=O)O)NC(=O)[C@H](Cc3ccncc3)NC(=O)[C@H](Cc3ccc(OCC(=O)O)cc3)NC(=O)CSC[C@@H](C(N)=O)NC(=O)[C@H](CO)NC(=O)[C@H](C(C)C)NC(=O)[C@H](CC(C)C)NC(=O)[C@H](CC(N)=O)NC(=O)[C@@H](CC(C)C)NC(=O)[C@H](C)N(C)C(=O)[C@H](C(C)C)NC(=O)[C@H](Cc3ccc(-c4ccccc4)cc3)NC(=O)[C@H](CC(C)C)NC2=O)c1 [Compound 1595] ({CH2CO}-Y(Carboxymethyl)[4Pal]D[Phe(3-Me)]L[Bip]V[NMeA][dL]NLVSC-NH2; thioether N-14) |
| 0.02 µM | Cc1cccc(C[C@@H]2NC(=O)[C@H](CC(=O)O)NC(=O)[C@H](Cc3ccc(C(=O)O)cc3)NC(=O)[C@H](Cc3ccc(OCC(=O)O)cc3)NC(=O)CSC[C@@H](C(N)=O)NC(=O)[C@H](CO)NC(=O)[C@H](C(C)C)NC(=O)[C@H](CC(C)C)NC(=O)[C@H](CC(N)=O)NC(=O)[C@@H](CC(C)C)NC(=O)[C@H](C)N(C)C(=O)[C@H](C(C)C)NC(=O)[C@H](Cc3ccc(-c4ccccc4)cc3)NC(=O)[C@H](CC(C)C)NC2=O)c1 [Compound 1596] ({CH2CO}-Y(Carboxymethyl)[Phe(4-COOH)]D[Phe(3-Me)]L[Bip]V[NMeA][dL]NLVSC-NH2; thioether N-14) |
